Reference: patent US20070049638A1, “Polymorphic forms of 3-amino-1-propanesulfonic acid” (Neurochem (International) Limited, priority 2005, published 2007)

Test: relative stability of the polymorphic forms (crystallisation and slurry interconversion experiments)
Format: physicochemical
Details: stated as 'believed to be'
Experimental: Thus in general, without wishing to be bound by theory, slower processes will favor the production of Form B. For example, slow addition of solvent, slow cooling rate and/or mixing will tend to favor the production of Form B, whereas fast solvent addition, fast cooling and/or minimal mixing time will favor production of Form A.
A mixture of 3-amino-1-propanesulfonic acid form A (0.7654 g) and form B (0.7880 g) were added to ethanol (5 mL) and water (1.25 mL) in a flask. The slurry was placed in a water bath at 5° C. and stirred for four hours. Solids were collected by vacuum filtration to afford form B.

SMILES | kinetic preference of the polymorphic form (generated from fast timescale experiments) | thermodynamic stability of the polymorphic form (between about 5 and about 60° C.)
NCCCS(=O)(=O)O [Form A, 3-amino-1-propanesulfonic acid] | kinetically favored form | 
NCCCS(=O)(=O)O [Form B, 3-amino-1-propanesulfonic acid] |  | more thermodynamically stable form
